Test results taken from paper PMC4648050, “Discovery of Inhibitors of Trypanosoma brucei by Phenotypic Screening of a Focused Protein Kinase Library” (Chemmedchem, 2015).

Tests used:
Type in all cases: biochemical, human/mammalian
PRK2 = PRK2 (Homo sapiens, UniProt Q16513); test: Kinase panel: PRK2; details: compound at 10 μM, read-out: % of activity respect of the control
Protocol: (§1) The DDU kinase-focused compound set contains lead-like scaffolds that are designed to target protein kinases; they have kinase hinge binding motifs. Four of the 1H-imidazopyrazinones were screened against a human/mammalian kinase panel at the University of Dundee (http://www.kinase-screen.mrc.ac.uk) at a concentration of 10 μM. At the time of testing the panel contained 79 mammalian kinases selected to provide a broad coverage of the mammalian kinome (∼500 kinases in the human genome).[3] None of the compounds were active against any of the kinases at 10 μM.

PKBa = PKBa (Homo sapiens, UniProt P31749); test: Kinase panel: PKBa; details: compound at 10 μM, read-out: % of activity respect of the control
PKBa, sequence (P31749 whole entry): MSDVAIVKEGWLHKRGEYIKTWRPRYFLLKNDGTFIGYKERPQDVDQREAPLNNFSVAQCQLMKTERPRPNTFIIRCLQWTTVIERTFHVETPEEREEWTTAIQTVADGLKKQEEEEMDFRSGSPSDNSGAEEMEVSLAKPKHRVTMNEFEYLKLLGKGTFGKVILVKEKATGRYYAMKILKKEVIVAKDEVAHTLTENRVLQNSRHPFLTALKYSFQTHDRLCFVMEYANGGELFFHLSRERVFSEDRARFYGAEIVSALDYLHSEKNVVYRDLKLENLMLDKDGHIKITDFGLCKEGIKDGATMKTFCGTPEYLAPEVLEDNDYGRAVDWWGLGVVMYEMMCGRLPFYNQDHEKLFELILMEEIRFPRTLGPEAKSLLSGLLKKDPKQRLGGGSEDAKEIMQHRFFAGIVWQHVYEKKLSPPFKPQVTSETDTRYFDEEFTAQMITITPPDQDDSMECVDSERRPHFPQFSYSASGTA
Protocol: as §1

CAMKKb = CAMKKb (Homo sapiens, UniProt Q96RR4); test: Kinase panel: CAMKKb; details: compound at 10 μM, read-out: % of activity respect of the control
Protocol: as §1

SGK1 = molecular target: T1, SGK1 (Homo sapiens, UniProt O00141); test: Kinase panel: SGK1; details: compound at 10 μM, read-out: % of activity respect of the control
T1 sequence (O00141 1-431): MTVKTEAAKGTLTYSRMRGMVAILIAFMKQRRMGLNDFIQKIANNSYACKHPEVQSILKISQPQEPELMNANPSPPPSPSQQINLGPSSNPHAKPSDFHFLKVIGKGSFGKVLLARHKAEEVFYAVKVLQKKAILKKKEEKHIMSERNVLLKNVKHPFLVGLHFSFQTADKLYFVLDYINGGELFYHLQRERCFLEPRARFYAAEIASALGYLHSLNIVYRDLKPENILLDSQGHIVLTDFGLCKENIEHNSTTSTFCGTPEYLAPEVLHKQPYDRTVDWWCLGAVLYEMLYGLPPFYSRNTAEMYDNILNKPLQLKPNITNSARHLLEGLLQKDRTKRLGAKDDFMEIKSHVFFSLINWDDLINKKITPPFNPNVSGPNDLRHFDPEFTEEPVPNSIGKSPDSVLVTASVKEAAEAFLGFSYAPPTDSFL
Protocol: as §1

EPH A2 = EPH A2 (Homo sapiens, UniProt P29317); test: Kinase panel: EPH A2; details: compound at 10 μM, read-out: % of activity respect of the control
Protocol: as §1

SRPK1 = SRPK1 (Homo sapiens, UniProt Q96SB4); test: Kinase panel: SRPK1; details: compound at 10 μM, read-out: % of activity respect of the control
SRPK1, sequence (Q96SB4 whole entry): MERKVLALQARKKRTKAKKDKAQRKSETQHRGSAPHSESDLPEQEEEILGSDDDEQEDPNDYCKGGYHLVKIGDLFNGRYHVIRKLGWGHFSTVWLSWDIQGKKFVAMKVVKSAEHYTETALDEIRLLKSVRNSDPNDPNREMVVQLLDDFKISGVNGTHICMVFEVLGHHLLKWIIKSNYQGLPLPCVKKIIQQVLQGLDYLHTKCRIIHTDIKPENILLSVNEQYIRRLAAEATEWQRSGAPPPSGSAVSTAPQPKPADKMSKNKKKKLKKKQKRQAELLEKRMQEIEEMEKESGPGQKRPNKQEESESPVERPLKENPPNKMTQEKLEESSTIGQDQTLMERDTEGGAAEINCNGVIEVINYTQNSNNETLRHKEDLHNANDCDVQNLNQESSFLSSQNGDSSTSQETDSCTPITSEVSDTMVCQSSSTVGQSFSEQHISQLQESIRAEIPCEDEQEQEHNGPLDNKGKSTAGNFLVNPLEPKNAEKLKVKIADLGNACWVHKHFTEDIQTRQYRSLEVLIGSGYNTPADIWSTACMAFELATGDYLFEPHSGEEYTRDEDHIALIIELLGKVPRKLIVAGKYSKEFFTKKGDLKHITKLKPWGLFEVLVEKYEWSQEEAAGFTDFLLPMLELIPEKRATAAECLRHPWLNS
Protocol: as §1

PAK4 = PAK4 (Homo sapiens, UniProt O96013); test: Kinase panel: PAK4; details: compound at 10 μM, read-out: % of activity respect of the control
PAK4, sequence (O96013 whole entry): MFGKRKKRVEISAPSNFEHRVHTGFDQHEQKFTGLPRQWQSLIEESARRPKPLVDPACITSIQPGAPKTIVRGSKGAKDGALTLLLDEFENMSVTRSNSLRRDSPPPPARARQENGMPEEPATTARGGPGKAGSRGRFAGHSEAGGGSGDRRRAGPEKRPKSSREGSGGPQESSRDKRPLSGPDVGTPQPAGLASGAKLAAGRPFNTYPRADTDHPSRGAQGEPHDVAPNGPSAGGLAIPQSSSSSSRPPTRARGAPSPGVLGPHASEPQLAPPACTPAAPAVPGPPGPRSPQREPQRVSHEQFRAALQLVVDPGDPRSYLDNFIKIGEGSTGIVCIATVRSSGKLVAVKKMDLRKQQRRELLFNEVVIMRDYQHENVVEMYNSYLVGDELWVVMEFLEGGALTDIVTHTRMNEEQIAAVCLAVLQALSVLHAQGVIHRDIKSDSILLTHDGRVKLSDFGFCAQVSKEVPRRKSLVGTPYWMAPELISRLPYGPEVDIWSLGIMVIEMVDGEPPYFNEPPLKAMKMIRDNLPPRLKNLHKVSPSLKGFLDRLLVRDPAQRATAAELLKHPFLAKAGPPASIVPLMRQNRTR
Protocol: as §1

AMPK = test: Kinase panel: AMPK; details: compound at 10 μM
Protocol: as §1

YES1 = YES1 (Homo sapiens, UniProt P07947); test: Kinase panel: YES1; details: compound at 10 μM, read-out: % of activity respect of the control
YES1, sequence (P07947 whole entry): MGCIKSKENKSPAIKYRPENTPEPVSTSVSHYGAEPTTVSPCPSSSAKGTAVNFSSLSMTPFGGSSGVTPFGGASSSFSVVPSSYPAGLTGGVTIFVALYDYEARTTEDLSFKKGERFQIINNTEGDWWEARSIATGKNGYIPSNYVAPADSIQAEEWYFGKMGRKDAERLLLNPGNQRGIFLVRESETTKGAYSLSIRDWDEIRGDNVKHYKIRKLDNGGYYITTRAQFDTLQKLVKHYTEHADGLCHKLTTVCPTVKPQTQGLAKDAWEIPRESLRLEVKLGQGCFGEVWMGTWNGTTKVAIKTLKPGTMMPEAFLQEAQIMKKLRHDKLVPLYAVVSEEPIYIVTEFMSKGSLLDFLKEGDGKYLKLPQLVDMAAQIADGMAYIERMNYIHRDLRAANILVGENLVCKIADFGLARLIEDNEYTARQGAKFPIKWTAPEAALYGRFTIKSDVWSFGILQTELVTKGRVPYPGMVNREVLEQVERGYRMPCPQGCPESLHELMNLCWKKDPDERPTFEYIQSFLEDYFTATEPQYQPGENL
Protocol: as §1

ROCK 2 = ROCK 2 (Homo sapiens, UniProt O75116); test: Kinase panel: ROCK 2; details: compound at 10 μM, read-out: % of activity respect of the control
ROCK 2, sequence (O75116 whole entry): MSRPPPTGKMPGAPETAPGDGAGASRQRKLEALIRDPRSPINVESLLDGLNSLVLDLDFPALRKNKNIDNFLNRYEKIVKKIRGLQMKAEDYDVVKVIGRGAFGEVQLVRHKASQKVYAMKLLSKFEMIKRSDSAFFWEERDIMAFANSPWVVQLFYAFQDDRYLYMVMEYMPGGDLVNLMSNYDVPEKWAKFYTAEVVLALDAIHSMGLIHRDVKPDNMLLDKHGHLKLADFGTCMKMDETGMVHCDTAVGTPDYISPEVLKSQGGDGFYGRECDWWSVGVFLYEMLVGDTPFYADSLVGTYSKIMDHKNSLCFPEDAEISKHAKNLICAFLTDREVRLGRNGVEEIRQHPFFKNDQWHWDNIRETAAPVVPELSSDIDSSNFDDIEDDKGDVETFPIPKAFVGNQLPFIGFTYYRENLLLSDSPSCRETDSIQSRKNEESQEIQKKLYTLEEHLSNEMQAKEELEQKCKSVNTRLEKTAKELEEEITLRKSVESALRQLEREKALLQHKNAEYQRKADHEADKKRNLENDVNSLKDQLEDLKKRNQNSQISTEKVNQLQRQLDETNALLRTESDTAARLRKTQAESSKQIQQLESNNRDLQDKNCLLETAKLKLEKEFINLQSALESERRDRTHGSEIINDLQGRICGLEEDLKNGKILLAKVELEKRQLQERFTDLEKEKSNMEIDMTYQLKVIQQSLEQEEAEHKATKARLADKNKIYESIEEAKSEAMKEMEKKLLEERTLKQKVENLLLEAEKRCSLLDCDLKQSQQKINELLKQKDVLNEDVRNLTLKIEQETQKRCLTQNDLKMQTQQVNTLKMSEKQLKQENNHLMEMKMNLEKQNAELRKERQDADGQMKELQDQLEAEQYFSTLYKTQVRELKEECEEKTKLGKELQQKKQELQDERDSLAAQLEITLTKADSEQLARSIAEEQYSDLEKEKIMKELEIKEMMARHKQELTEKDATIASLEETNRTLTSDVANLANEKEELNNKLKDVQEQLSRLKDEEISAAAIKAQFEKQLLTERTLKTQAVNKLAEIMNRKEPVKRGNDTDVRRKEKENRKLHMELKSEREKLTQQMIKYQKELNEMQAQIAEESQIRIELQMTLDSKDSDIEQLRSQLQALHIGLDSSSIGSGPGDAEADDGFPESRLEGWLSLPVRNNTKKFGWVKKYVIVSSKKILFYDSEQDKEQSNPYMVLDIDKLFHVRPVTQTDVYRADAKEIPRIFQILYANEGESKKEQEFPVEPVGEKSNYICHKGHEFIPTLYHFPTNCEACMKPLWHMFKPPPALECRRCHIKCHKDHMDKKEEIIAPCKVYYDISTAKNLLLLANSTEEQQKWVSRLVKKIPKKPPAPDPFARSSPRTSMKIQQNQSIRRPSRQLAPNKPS
Protocol: as §1

MELK = MELK (Homo sapiens, UniProt Q14680); test: Kinase panel: MELK; details: compound at 10 μM, read-out: % of activity respect of the control
Protocol: as §1

PAK6 = PAK6 (Homo sapiens, UniProt Q9NQU5); test: Kinase panel: PAK6; details: compound at 10 μM, read-out: % of activity respect of the control
PAK6, sequence (Q9NQU5 whole entry): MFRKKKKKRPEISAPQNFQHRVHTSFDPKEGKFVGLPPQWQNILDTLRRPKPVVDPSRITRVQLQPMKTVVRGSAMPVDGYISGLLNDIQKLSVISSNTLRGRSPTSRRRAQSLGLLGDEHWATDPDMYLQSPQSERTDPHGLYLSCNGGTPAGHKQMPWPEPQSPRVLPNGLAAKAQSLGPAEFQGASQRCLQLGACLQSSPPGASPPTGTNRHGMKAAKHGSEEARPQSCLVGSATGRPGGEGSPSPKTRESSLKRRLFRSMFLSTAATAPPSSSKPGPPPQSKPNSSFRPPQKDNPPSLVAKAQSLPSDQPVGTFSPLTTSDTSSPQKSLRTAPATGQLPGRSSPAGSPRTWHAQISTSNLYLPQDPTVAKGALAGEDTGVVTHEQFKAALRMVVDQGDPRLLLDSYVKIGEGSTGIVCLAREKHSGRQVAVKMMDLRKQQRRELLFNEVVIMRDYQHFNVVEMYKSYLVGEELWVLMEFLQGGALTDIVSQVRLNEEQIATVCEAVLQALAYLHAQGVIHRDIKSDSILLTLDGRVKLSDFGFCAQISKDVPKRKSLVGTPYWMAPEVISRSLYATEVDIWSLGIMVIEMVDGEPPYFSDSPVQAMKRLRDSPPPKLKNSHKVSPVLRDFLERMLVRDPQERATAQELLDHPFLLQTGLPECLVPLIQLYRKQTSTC
Protocol: as §1

MAPKAP-K2 = MAPKAP-K2 (Homo sapiens, UniProt P49137); test: Kinase panel: MAPKAP-K2; details: compound at 10 μM, read-out: % of activity respect of the control
Protocol: as §1

NEK2a = molecular target: T2, NEK2a (Homo sapiens, UniProt P51955); test: Kinase panel: NEK2a; details: compound at 10 μM, read-out: % of activity respect of the control
T2 sequence (P51955 1-445): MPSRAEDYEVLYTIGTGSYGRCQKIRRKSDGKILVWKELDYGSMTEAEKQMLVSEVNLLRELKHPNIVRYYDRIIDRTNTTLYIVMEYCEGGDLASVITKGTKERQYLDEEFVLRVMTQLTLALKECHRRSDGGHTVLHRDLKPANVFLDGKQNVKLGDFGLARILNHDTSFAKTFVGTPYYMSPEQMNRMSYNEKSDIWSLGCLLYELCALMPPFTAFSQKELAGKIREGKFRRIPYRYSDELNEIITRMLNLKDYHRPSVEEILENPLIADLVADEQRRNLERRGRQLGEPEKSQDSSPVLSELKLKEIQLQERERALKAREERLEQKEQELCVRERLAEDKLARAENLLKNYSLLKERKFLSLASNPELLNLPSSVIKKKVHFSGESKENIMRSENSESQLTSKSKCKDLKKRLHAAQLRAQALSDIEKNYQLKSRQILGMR
Protocol: as §1

IR-HIS = IR-HIS (Homo sapiens, UniProt P06213); test: Kinase panel: IR-HIS; details: compound at 10 μM, read-out: % of activity respect of the control
Protocol: as §1

VEG-FR = VEG-FR (Homo sapiens, UniProt P17948); test: Kinase panel: VEG-FR; details: compound at 10 μM, read-out: % of activity respect of the control
Protocol: as §1

PIM2 = PIM2 (Homo sapiens, UniProt Q9P1W9); test: Kinase panel: PIM2; details: compound at 10 μM, read-out: % of activity respect of the control
PIM2, sequence (Q9P1W9 whole entry): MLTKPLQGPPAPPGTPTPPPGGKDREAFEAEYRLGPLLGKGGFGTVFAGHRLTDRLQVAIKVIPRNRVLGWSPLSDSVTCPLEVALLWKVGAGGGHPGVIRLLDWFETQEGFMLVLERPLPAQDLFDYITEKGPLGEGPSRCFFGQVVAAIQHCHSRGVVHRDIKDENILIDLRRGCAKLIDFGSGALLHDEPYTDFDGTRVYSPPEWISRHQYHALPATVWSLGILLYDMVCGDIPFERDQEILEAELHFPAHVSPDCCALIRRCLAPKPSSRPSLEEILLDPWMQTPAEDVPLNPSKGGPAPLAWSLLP
Protocol: as §1

P38b MAPK = P38b MAPK (Homo sapiens, UniProt Q15759); test: Kinase panel: P38b MAPK; details: compound at 10 μM, read-out: % of activity respect of the control
P38b MAPK, sequence (Q15759 whole entry): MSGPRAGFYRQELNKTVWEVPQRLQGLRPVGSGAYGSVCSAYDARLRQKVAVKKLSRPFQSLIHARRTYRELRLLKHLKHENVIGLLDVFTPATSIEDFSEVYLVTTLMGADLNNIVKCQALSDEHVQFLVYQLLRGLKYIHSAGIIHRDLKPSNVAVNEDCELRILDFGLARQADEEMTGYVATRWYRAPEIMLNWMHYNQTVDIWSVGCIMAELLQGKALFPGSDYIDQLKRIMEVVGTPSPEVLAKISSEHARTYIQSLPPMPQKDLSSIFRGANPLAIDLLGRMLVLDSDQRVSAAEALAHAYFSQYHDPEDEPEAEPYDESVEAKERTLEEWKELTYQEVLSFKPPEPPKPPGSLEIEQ
Protocol: as §1

Compound: C[C@H](c1ccccc1)n1c(=O)[nH]c2ncc(-c3ccccc3)nc21 [Compound 14, (R)-6-Phenyl-1-(1-phenylethyl)-1H-imidazo[4,5-b]pyrazin-2(3H)-one]
- remaining activity at 10 µM (PRK2): 97%
- remaining activity at 10 µM (PKBa): 89%
- remaining activity at 10 µM (CAMKKb): 86%
- remaining activity at 10 µM (SGK1): 98%
- remaining activity at 10 µM (EPH A2): 89%
- remaining activity at 10 µM (SRPK1): 75%
- remaining activity at 10 µM (PAK4): 86%
- % of activity respect of the control (AMPK): 95%
- remaining activity at 10 µM (YES1): 71%
- remaining activity at 10 µM (ROCK 2): 85%
- remaining activity at 10 µM (MELK): 100%
- remaining activity at 10 µM (PAK6): 88%
- remaining activity at 10 µM (MAPKAP-K2): 84%
- remaining activity at 10 µM (NEK2a): 96%
- remaining activity at 10 µM (IR-HIS): 93%
- remaining activity at 10 µM (VEG-FR): 73%
- remaining activity at 10 µM (PIM2): 96%
- remaining activity at 10 µM (P38b MAPK): 95%

Compound: CC(c1ccccc1)n1c(=O)[nH]c2ncc(-c3ccc(F)cc3)nc21 (stereo not drawn) [Compound 1]
- remaining activity at 10 µM (PRK2): 111%
- remaining activity at 10 µM (PKBa): 99%
- remaining activity at 10 µM (CAMKKb): 101%
- remaining activity at 10 µM (SGK1): 104%
- remaining activity at 10 µM (EPH A2): 105%
- remaining activity at 10 µM (SRPK1): 80%
- remaining activity at 10 µM (PAK4): 101%
- % of activity respect of the control (AMPK): 97%
- remaining activity at 10 µM (YES1): 94%
- remaining activity at 10 µM (ROCK 2): 105%
- remaining activity at 10 µM (MELK): 118%
- remaining activity at 10 µM (PAK6): 89%
- remaining activity at 10 µM (MAPKAP-K2): 90%
- remaining activity at 10 µM (NEK2a): 117%
- remaining activity at 10 µM (IR-HIS): 88%
- remaining activity at 10 µM (VEG-FR): 117%
- remaining activity at 10 µM (PIM2): 113%
- remaining activity at 10 µM (P38b MAPK): 84%

Compound: O=c1[nH]c2ncc(-c3ccc(F)cc3)nc2n1CC1CC1 [Compound 10]
- remaining activity at 10 µM (PRK2): 99%
- remaining activity at 10 µM (PKBa): 96%
- remaining activity at 10 µM (CAMKKb): 98%
- remaining activity at 10 µM (SGK1): 110%
- remaining activity at 10 µM (EPH A2): 96%
- remaining activity at 10 µM (SRPK1): 89%
- remaining activity at 10 µM (PAK4): 106%
- % of activity respect of the control (AMPK): 94%
- remaining activity at 10 µM (YES1): 96%
- remaining activity at 10 µM (ROCK 2): 78%
- remaining activity at 10 µM (MELK): 125%
- remaining activity at 10 µM (PAK6): 98%
- remaining activity at 10 µM (MAPKAP-K2): 104%
- remaining activity at 10 µM (NEK2a): 101%
- remaining activity at 10 µM (IR-HIS): 109%
- remaining activity at 10 µM (VEG-FR): 98%
- remaining activity at 10 µM (PIM2): 111%
- remaining activity at 10 µM (P38b MAPK): 101%

Compound: O=c1[nH]c2ncc(-c3ccc(F)cc3)nc2n1C1CCCCC1 [Compound 12, 1-Cyclohexyl-6-(4-fluorophenyl)-1H-imidazo[4,5-b]pyrazin-2(3H)-one]
- remaining activity at 10 µM (PRK2): 112%
- remaining activity at 10 µM (PKBa): 102%
- remaining activity at 10 µM (CAMKKb): 104%
- remaining activity at 10 µM (SGK1): 111%
- remaining activity at 10 µM (EPH A2): 97%
- remaining activity at 10 µM (SRPK1): 88%
- remaining activity at 10 µM (PAK4): 103%
- % of activity respect of the control (AMPK): 100%
- remaining activity at 10 µM (YES1): 96%
- remaining activity at 10 µM (ROCK 2): 84%
- remaining activity at 10 µM (MELK): 110%
- remaining activity at 10 µM (PAK6): 106%
- remaining activity at 10 µM (MAPKAP-K2): 101%
- remaining activity at 10 µM (NEK2a): 93%
- remaining activity at 10 µM (IR-HIS): 119%
- remaining activity at 10 µM (VEG-FR): 107%
- remaining activity at 10 µM (PIM2): 111%
- remaining activity at 10 µM (P38b MAPK): 122%
